The text below walks through data of patent publication US20100267731A1, “USE OF TRANSFORMING GROWTH FACTOR-B RECEPTOR INHIBITORS TO SUPPRESS OCULAR SCARRING” (Summa Health Systems, LLC, priority 2009, published 2010).

Series [1] has as its system cultured rabbit subconjunctival fibroblasts. Description: Toxicity of ALK-5 inhibitors in vitro (cell count by hemocytometer). The conditions noted are these: 10.0 of inhibitor pre-treated one hour, then 2 ng/ml TGF-β2 up to 48 hours. Format: cell-based, New Zealand white rabbit. On the procedure: Sample fibroblasts were obtained from New Zealand white rabbit eyes. The fibroblasts were derived from the subconjunctival tissues isolated from the eyes of the subjects. The cells were maintained in 25 cm^2 flask using 2 ml of medium composed of Eagle's minimal essential medium, 10% fetal bovine serum, 5% calf serum, essential and nonessential aminoacids, and antibiotics. When the cells reached confluence, they were trypsinized and passaged.
Three samples of the fibroblasts were prepared. The first sample, sample A, included fibroblast cultures treated with 2 ng/ml of TGF-β2 for up to 48 hours. The second sample, sample B, included fibroblast cultures that were untreated. The third sample included fibroblast cultures pre-treated with 2 ml of a medium including […] of ALK-5 inhibitor SB-505124 for one hour, and were additionally treated with additional 2 ng/ml of TGF-β2 (R&D Systems, Minneapolis, Minn.) for up to 48 hours.
The number of cells were counted using a hemocytometer (Hausser Scientific, Horsham, PC) after trypsinization. […] Therefore, in addition to inhibiting the expression of TGF-β2 and mitigating the ocular scarring that may result after GFS by using an ALK-5 type inhibitor, the ALK-5 inhibitor appears to have the added benefit of not destroying healthy cells around the surgical site that prevent post-surgery infection.

The subject of series [2] is New Zealand white rabbits. Description: Post surgery IOP in vivo. Further details: species or system New Zealand white rabbit. Particulars: rabbit GFS, versus untreated eye. On the procedure: IOP for the animals in groups A-D was measured with a TONO-PEN AVIA® (Reichert Ophthalmic Instruments, Depew, N.Y.) by gently touching the cornea of each subject after topical anesthesia was applied with 0.5% proparacaine. The IOP reading was omitted if its confidence interval was less than 95%. An average of three measurements was taken to deduce IOP.

Series [3] has as its system subconjunctival tissue fibroblast outgrowth. In words: Subconjunctival tissue fibroblast outgrowth assay ex vivo. In kind it is cell-based, New Zealand white rabbit. The conditions noted are these: for cell outgrowth length, explant from 180° control: 180° from the surgical site (180° control). On the procedure: Under an ophthalmic surgical microscope, subconjunctival tissues were dissected from the surgical site and 180 (6-o'clock position) from the surgical site (the 180° control). Each biopsy specimen (explant) was placed in a 25 cm^2 cell culture flask with complete media. […] The cell outgrowth, in mm, from the edge of each explant was observed, and the length of the outgrowth in 4 quadrants was measured.

Series [4] relates to New Zealand white rabbits. Description: Hematoxylin and eosin staining ex vivo of eyes after GFS. Format: in vivo. The conditions noted are these: for infiltration of inflammatory cells and scarring in the subconjunctival space: H&E, five days after surgery. On the procedure:
Five days after surgery, the subjects in Groups A-D were euthanized with Fatal-plus™ (Vortech Pharmaceutical, Dearborn, Mich.) following the manufacturer's instructions. The subject's eyes were enucleated with palpebral margins to keep the conjunctiva epithelium and the subconjunctival space intact. Enucleated eyes were fixed with 10% buffered formalin and 5 μm thick paraffin sections were prepared. The sections were stained with hematoxylin and eosin (H&E) for histological examination, and images were captured using an Olympus DX51 light microscope and DP controller (Olympus, Tokyo, Japan).

The mark [5] stands for this setting: explants taken five days after GFS.

On to `Cc1cccc(-c2[nH]c(C(C)(C)C)nc2-c2ccc3c(c2)OCO3)n1` [SB-505124], for which the “cell number versus samples untreated or treated with TGF-β2 alone” value in series [1] is “no measurable difference in cell number”. Besides, the “time IOP of treated eyes was lowered after GFS” value in series [2] (SB-505124 tablet) is reported as “up to 10 days”. The “cell outgrowth length, explant from 180° control” value in series [3] (over 18 days) is “approximately 7 mm”. For the same molecule, in series [3] (setting [5]), the “cell outgrowth from the edge of the subconjunctival tissue explant (qualitative)” value is listed as “robust” and the “difference in cell outgrowth versus untreated group” value is listed as “no significant difference”. In series [3] (surgical site, over 18 days), the “cell outgrowth length, explant from surgical site” value is “approximately 7 mm”. For the same molecule, the “infiltration of inflammatory cells and scarring in the subconjunctival space” value in series [4] is “only a few inflammatory cells and mild scarring”. In addition, in series [4] (rabbit, in vivo), the “signs of tissue toxicity” value was “no or very low signs of tissue toxicity” and the subconjunctival blood vessels result is recorded as “seen”.
`CO[C@@]12[C@H](COC(N)=O)C3=C(C(=O)C(C)=C(N)C3=O)N1C[C@@H]1N[C@@H]12` [MMC, mitomycin C]: in series [2] (MMC control), the “period IOP of treated eyes was lowered after GFS (in words)” value is on record as “throughout the observation period”. Moreover, the “cell outgrowth length, explant from 180° control” value in series [3] (over 18 days) is “approximately 7 mm”. The “infiltration of inflammatory cells and scarring in the subconjunctival space” value in series [4] was “only a few inflammatory cells and mild scarring”.
